Tested on: HE4
Assay: HE4 ELISA, secreted and intracellular levels
Assay type: cell-based, human
Protocol: Cell lines, Culture, and Reagents. Cells were maintained in either DMEM (SKOV-3, KLE, OVCAR-3, OVCAR8-C5 and IGROV-1) or RPMI-1640 (ECC-1 and HCH-1), supplemented with 10% fetal calf serum (or 20% for OVCAR-3), penicillin (100 units/mL), and streptomycin (100 μg/mL) at 37° C. with 5% CO2 in a humidified incubator. Antibodies were purchased from Abcam (septin-2; ab179436) and Cell Signaling Technology; ERK (9102), p-ERK (4370), -actin (3700), u-Tubulin (2144), EGFR (4267) and HER2 (4290). FCF was purchased from Abcam. All other chemicals were from Sigma Aldrich. Synthesis of Derivaties. […] The reaction was monitored using thin-layer chromatography plates with DCM-MeOH or pure ethyl acetate as eluent. Spots were monitored in a UV chamber. The reaction mixture, upon completion of the reaction, was poured into wet ice mixture and triturated, then the separated solid was filtered by vacuum. The product was washed with hexane, followed by diethyl ether, and was dried under vacuum. The compounds were characterized by spectrophotometric techniques. Quantitative Real-Time PCR. The indicated cell lines were transfected with siRNA targeting septin-2 or non-targeting control siRNA (Santa Cruz Biotechnology: sc-37007 or sc-40936) using Lipofectamine 3000 (Invitrogen). Tri reagent and Direct-zol kit (Zymo Research) were used to lyse and isolate total RNA. Reverse transcription was performed using iScript cDNA synthesis kit (BioRad), both following the manufacturer's recommendations. Quantitative real-time PCR was conducted using QuantStudio 12 K Flex Real-Time PCR System (ABI) and the Taqman Gene Expression Assay (ABI) consisting of the FAM-labeled probes as follows: SEPT2 (Hs01565417_ml); WFDC2 (Hs00899484_ml); TBP (Hs00427620_ml) or B2M (Hs00187842_ml), which was used as reference for normalization. Cell Viability, Proliferation and Apoptosis Assay. Cell viability, proliferation, and cellular apoptosis were measured using the MTS (Promega), BrdU cell proliferation (Cell Signaling Technology), and Caspase-Glo 3/7 apoptosis detection (Promega) assays, following the respective manufacturer's recommendations with suitable modification. Enzyme-Linked Immunosorbent Assay (ELISA) and Immunoblotting. Cells were maintained overnight in the culture media described above. […] Following the treatment, cell lysates and supernatants were collected and subjected to HE4 assay (Human HE4 Quantikine ELISA Kit, R&D Systems). The amount of HE4 in supernatant was normalized to the protein concentration of matching cell lysate. The levels of HER2 were determined by Human Total ErbB2/Her2 DuoSet IC ELISA (R&D systems. Wester blot analysis was conducted using the protocol previously published (see Kim, K. K. et al. Tetrathiomolybdate inhibits mitochondrial complex IV and mediates degradation of hypoxia-inducible factor-1alpha in cancer cells. Sci. Rep. 5, 14296, 2015). Data Acquisition and Statistical Analysis. Gene expression profiling of septins, comparing microdissected normal ovarian stroma (N=8) against that of tumor stroma samples (N=31) from high grade serous ovarian cancer patients, was obtained from Mixed Ovarian Cancer (CAFs)-Wong-77-u133p2 data-set through ‘R2: Genomics Analysis and Visualization Platform (http://r2/am/n1). […] Survival curves between septin high and low population and their statistical significance were analyzed using GraphPad Prism software (Mantel-Cox test). […]

Which results are given for `O=C(Nc1ccccc1)Nc1ccnc(Cl)c1` [FCF, N-(2-chloro-4-pyridyl)-N′-phenylurea, reference compound]?
HE4 secretion (ECC-1 and HCH-1 cells, 5 hours): dose-dependent; HE4 secretion (OVCAR8-C5, 300 μM for 7 h): decrease in HE4 secretion; intracellular levels of HE4 (OVCAR8-C5, 300 μM for 7 h): marginal increase

Reference: patent US12433876B2, “Septin inhibitors for treatment of cancers” (UNIVERSITY OF ROCHESTER, priority 2019, dated 2025)
